Test results published in patent US8329719B2, “Neuroprotective agents for the prevention and treatment of neurodegenerative diseases” (Lixte Biotechnology, Inc., priority 2008, dated 2012).
“Also recorded” adds a separate entry of the source.

Legend:
[1] = system: p-Akt / total Akt in medulloblastoma cells, DAOY; experiment: Induction of phosphorylated Akt in DAOY cells in culture (western blot); type: cell-based, human; conditions: after 4 hours
Procedure: FIG. 1: Induction of phosphorylated Akt by Compound 100 in DAOY cells in culture. • The medulloblastoma cells, DAOY, in culture were exposed to Compound 100, Compound 205 or vehicle alone. After 4 hours western blots were made for p-Akt, total Akt, and beta actin.
Medulloblastoma cells, DAOY, were grown in culture and exposed to Compound 100, […] or vehicle alone. After 4 hours western blots were made for p-Akt, total Akt and beta actin.

Akt = Akt phosphorylation in the cell lines tested growing as xenografts in SCID mice; type: in vivo; conditions: given intraperitoneally
From the text: The compounds increase the phosphorylation of several regulatory proteins including Akt. At low doses that are non-toxic to mice, these compounds slightly stimulate cell proliferation and increases phosphorylation of Akt in human cancer cell lines tested including SH-SY5Y.

[2] = system: p-Akt / total Akt in human glioblastoma cells, U87; experiment: Induction of phosphorylated Akt in U87 cells in culture (western blot); type: cell-based; conditions: after 4 hours
Procedure: FIG. 3: Induction of phosphorylated Akt by Compound 100 in U87 cells in culture. • The human glioblastoma cells, U87, were exposed to compound 100 or vehicle alone. After 4 hours western blots were made for p-Akt, total Akt, and beta actin.
Human glioblastoma cells, U87, were grown in culture and exposed to Compound 100 or vehicle alone. After 4 hours, western blots were made for p-Akt, total Akt, and beta actin.

protein phosphatase 2A = protein phosphatase 2A (Homo sapiens, UniProt P67775); experiment: Inhibition of protein phosphatase 2A; type: biochemical
Sequence of protein phosphatase 2A (P67775 whole entry): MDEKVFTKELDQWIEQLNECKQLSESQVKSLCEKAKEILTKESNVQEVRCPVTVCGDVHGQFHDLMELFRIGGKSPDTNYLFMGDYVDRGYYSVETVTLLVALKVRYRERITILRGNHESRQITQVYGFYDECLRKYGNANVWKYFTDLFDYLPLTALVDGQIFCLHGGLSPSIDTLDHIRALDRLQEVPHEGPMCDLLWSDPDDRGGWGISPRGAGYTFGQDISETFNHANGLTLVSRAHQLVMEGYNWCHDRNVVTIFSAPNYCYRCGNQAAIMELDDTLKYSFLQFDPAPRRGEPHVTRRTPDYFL

[3] = system: p-Akt / total Akt in human glioblastoma U87 xenografts; experiment: Induction of phosphorylated Akt in U87 cells growing as xenografts in SCID mice (western blot); type: in vivo; conditions: 0.03 mg/20 gram mouse, after 4 hours
Procedure: FIG. 4: Induction of phosphorylated Akt by Compound 100 in U87 cells growing as xenografts in SCID mice. • SCID mice with human glioblastoma cells, U87, implanted subcutaneously were treated with 0.03 mg/20 gram mouse with Compound 100 or vehicle alone. After 4 hours, western blots were made for p-Akt, total Akt, and beta actin.
Human glioblastoma U87 cells were implanted subcutaneously in SCID mice. Mice were then treated with 0.03 mg/20 gram mouse with Compound 100 or vehicle alone. After 4 hours, western blots were made for p-Akt, total Akt, and beta actin.

[4] = system: acetylated histone 3 and histone 4; experiment: Acetylation of Histone 3 and Histone 4 in normal mouse brain (western blot); type: in vivo; conditions: for entry into the brain: mouse, given intraperitoneally, shown by histone acetylation; for acetylation of histone 3 and histone 4 in brain: normal mice, 0.03 mg/20 gram mouse, 4 hours of exposure, compared to control tissue
Procedure: FIG. 5: Induction of acetylation of Histone 3 and Histone 4 in normal mouse brain by Compound 100 and Compound 102. • Normal mice were treated with Compound 100 and Compound 102, 0.03 mg/20 gram mouse. After 4 hours of exposure, treated and control animals (vehicle alone) animals were sacrificed and western blots for acetylated histone 3 and histone 4 were made.
Normal mice were treated with Compound 100 or Compound 102 at a dose of 0.03 mg/20 gram mouse, or with vehicle. After 4 hours of exposure, treated and control animals were sacrificed and western blots for acetylated histone 3 and histone 4 were made.

[5] = system: p-Akt / total Akt in human medulloblastoma DAOY xenografts; experiment: Induction of phosphorylated Akt in DAOY cells growing as xenografts in SCID mice (western blot); type: in vivo; conditions: 0.03 mg/20 gram mouse, after 4 hours and 24 hours
Procedure: FIG. 2: Induction of phosphorylated Akt by Compound 100 in DAOY cells growing as xenografts in SCID mice. • SCID mice with human medulloblastoma cells, DAOY, implanted subcutaneously were treated with 0.03 mg/20 gram mouse with Compound 100 or vehicle alone. After 4 hours and 24 hours western blots were made for p-Akt, total Akt, and beta actin. Control cells (C) at both time points (only 24 hour point shown) had only trace amounts of p-Akt and substantial amounts of total Akt and beta actin.
Human medulloblastoma DAOY cells were implanted subcutaneously in SCID mice. Mice were then treated with 0.03 mg/20 gram mouse with Compound 100 or vehicle alone. After 4 hours and 24 hours, western blots were made for phosphorylated Akt (p-Akt), total Akt, and beta actin. Control cells at both time points had only trace amount of p-Akt and substantial amounts of total Akt and beta actin.

[6] = system: primary rat cortical neurons; experiment: Neurite extension after Calcein staining; type: cell-based; conditions: 250 and 500 nM
Procedure: Neurite extension was evaluated after Calcein staining using commercially available software.

[7] = system: NMDA type response to glutamate in primary rat cortical neurons; experiment: Calcium response of cultured neurons to acute glutamate exposure; type: cell-based; conditions: for calcium response to 200 uM glutamate versus DMSO control: 500 nM compound, 24 h prior to glutamate, single study; for average % increase in response to glutamate exposure: average of 4 separate experiments (FIG. 19)
From the text: To assess the effects of compound 102 and compound 201, independently, on neuronal function, the ability of the neurons in a culture dish to respond to exposure to glutamate was studied. In vitro, neurons respond to glutamate with the activation of several receptors associated with different transducing mechanisms. The assortment of glutamate sensitive receptors in a given neuronal population depends on maturation and differentiation. After seven days in culture, there is an assortment of glutamate receptors, including the AMPA/Kainate and NMDA receptors. AMPA/Kainate receptors are in general maximally expressed in the first few days in vitro followed by a gradual decline, while NMDA receptor expression increases over time, reaching a maximum after 7 days in vitro. AMPA/Kainate responses to exposure to glutamate as measured by calcium flux are characterized by fast desensitization (i.e. very little measurable calcium increase), while NMDA responses are characterized by an elevation of calcium concentration that persists as long as glutamate is applied. In the absence of test drug, there was variability in glutamate responsiveness dependent on NMDA receptor expression. A typical response of neurons in culture to glutamate characteristic of the NMDA receptors consists of a rapid increase and a high plateau phase of calcium (FIGS. 8-10). […] This modulation is compatible with a positive neurotrophic effect of compound 201.

[8] = system: primary embryonal rat cortical neuronal cells; experiment: Survival of primary cortical neurons after environmental stress (growth factor deficient medium 1 hour); type: cell-based; conditions: 500 nM, cell counts at 3, 6, 13 and 23 days in culture, n=4
Procedure: FIG. 6. Photomicrographs of primary embryonal rat cortical neuronal cells at 23 days subjected to environmental stress by exposure to growth factor deficient medium for 1 hour on day 3 of culture.
FIG. 7. Average number of primary embryonal rat cortical neuronal cells at 3, 6, 13, and 23 days in culture (n=4). • All cultures were exposed to growth factor deficient medium for 1 hour on day 3 followed by of culture in complete medium containing no supplement (control), drug vehicle (0.05% DMSO), compound 102 (500 nM), or compound 201 (500 nM).
Neurons were chronically or acutely treated with each compound and exposed to environmental stress (replacement of the culture medium with a saline PBS based solution for one hour followed by removal of the PBS medium and restoration of standard neuronal culture medium) and then observed for survival (FIG. 6).

HDAC = HDAC inhibition; type: biochemical

In the case of `CN1CCN(C(=O)C2C(C(=O)O)[C@H]3CC[C@@H]2O3)CC1` (stereo partly shown) [Compound 100], the “p-Akt (western blot)” value [1] is reported as “induction of p-Akt”, the “total Akt relative to beta actin (western blot)” value (“total Akt relative to beta actin” below) [1] is reported as “increase in total Akt relative to beta actin” and the “Akt phosphorylation in xenografts” value (Akt) is reported as “increased Akt phosphorylation”. The “p-Akt (western blot)” value [2] was “induction of p-Akt”, the “total Akt relative to beta actin” value [2] was “increase in total Akt relative to beta actin” and the “inhibition of protein phosphatase 2A” value (protein phosphatase 2A) was “inhibit protein phosphatase 2A”. The “p-Akt (western blot)” value [3] was “induction of p-Akt”, the “total Akt relative to beta actin” value [3] was “increase in total Akt relative to beta actin” and the “entry into the brain” value [4] was “properties that enhance their entry into the brain”. The “acetylation of histone 3 and histone 4 in brain” value [4] was “increased acetylation of the histones”, the “p-Akt (western blot)” value [5] was “induction of p-Akt” and the “total Akt relative to beta actin” value [5] was “increase in total Akt relative to beta actin”.
With `CC(C)(C)OC(=O)N1CCN(C(=O)C2C(C(=O)O)[C@H]3CC[C@@H]2O3)CC1` (stereo partly shown) [Compound 102] the process length [6] was “increased process length”, the total neurite outgrowth [6] was “increased total neurite outgrowth” and the “Akt phosphorylation in xenografts” value (Akt) was “increased Akt phosphorylation”. The “inhibition of protein phosphatase 2A” value (protein phosphatase 2A) was “inhibit protein phosphatase 2A; also recorded: protein phosphatase 2A inhibitor”, the “entry into the brain” value [4] was “properties that enhance their entry into the brain” and the “acetylation of histone 3 and histone 4 in brain” value [4] was “increased acetylation of the histones”. The “calcium response to 200 uM glutamate versus DMSO control” value [7] was “statistically significant increase in the NMDA type response to glutamate; also recorded: significantly enhanced the response to glutamate”, the “average % increase in response to glutamate exposure” value [7] was “smaller but statistically significant effect; also recorded: less effective but still had a significant effect” and the “neuronal cell number / protection of cell integrity after stress” value [8] was “little effect on cell number”.
`O=C(O)C1C(C(=O)N2CCN(Cc3ccccc3)CC2)[C@@H]2CC[C@H]1O2` (stereo partly shown) [Compound 103] was tested, and the “inhibition of protein phosphatase 2A” value (protein phosphatase 2A) was “inhibit protein phosphatase 2A”.
With `COc1ccc(CCN2CCC(NC(=O)C3C(C(=O)O)[C@H]4CC[C@@H]3O4)CC2)cc1` (stereo partly shown) [Compound 104] the “inhibition of protein phosphatase 2A” value (protein phosphatase 2A) was “inhibit protein phosphatase 2A”.
In the case of `CCN1CCN(C(=O)C2C(C(=O)O)[C@H]3CC[C@@H]2O3)CC1` (stereo partly shown) [Compound 105], the “inhibition of protein phosphatase 2A” value (protein phosphatase 2A) is reported as “inhibit protein phosphatase 2A”.
`CN(C)CCNC(=O)C1C(C(=O)O)[C@H]2CC[C@@H]1O2` (stereo partly shown) [Compound 106] was tested, and the “inhibition of protein phosphatase 2A” value (protein phosphatase 2A) was “inhibit protein phosphatase 2A”.
In the case of `COC(=O)C1C(C(=O)N2CCN(C)CC2)[C@@H]2CC[C@H]1O2` (stereo partly shown) [Compound 107], the “inhibition of protein phosphatase 2A” value (protein phosphatase 2A) is reported as “inhibit protein phosphatase 2A”.
With `CN1CCN(C(=O)C2C(C(=O)S)[C@H]3CC[C@@H]2O3)CC1` (stereo partly shown) [Compound 108] the “inhibition of protein phosphatase 2A” value (protein phosphatase 2A) was “inhibit protein phosphatase 2A”.
For `O=C(O)C1C(C(=O)N2CCOCC2)[C@@H]2CC[C@H]1O2` (stereo partly shown) [Compound 111], the “inhibition of protein phosphatase 2A” value (protein phosphatase 2A) was “inhibit protein phosphatase 2A”.
For `O=C(CCCCCNC(=O)c1ccccc1S)Nc1ccccc1` [Compound 201], the process length [6] was “increased process length”, the total neurite outgrowth [6] was “increased total neurite outgrowth” and the HDAC inhibition (HDAC) was “class I and II HDAC inhibitor”. For the same compound, the “calcium response to 200 uM glutamate versus DMSO control” value [7] was “statistically significant increase in the NMDA type response to glutamate; also recorded: significantly enhanced the response to glutamate”, the “average % increase in response to glutamate exposure” value [7] was “significantly enhanced the response to glutamate” and the “neuronal cell number / protection of cell integrity after stress” value [8] was “marked neurotrophic effects as evidenced by maintenance for up to 21 days neuronal cell numbers; also recorded: statistically significant (p<=0.01) protection of cell integrity”.
For `O=C(CCCCCNC(=O)c1ccccc1S)Nc1cccnc1` [Compound 205], the “p-Akt (western blot)” value [1] was “little effect; also recorded: no effect”, the “inhibition of protein phosphatase 2A” value (protein phosphatase 2A) was “no anti-PP2A activity” and the HDAC inhibition (HDAC) was “investigational histone deacetylase inhibitor”.
